# Source: patent US20050118226A1, “Methods for treating ACAT-related diseases” (priority 2003, published 2005)
# Where a SMILES comes first, the peptide text is derived from it. [ ]: non-standard residue; d: D form. Sta = CC(C)C[C@H](N)[C@@H](O)CC(=O)O
# Assays:
# [1] = tested on: γ-secretase; test: In vitro generation of APP intracellular domain (AICD), γ-secretase activity assay on CHO cell membrane fractions; assay type: biochemical, Chinese hamster; details: CHO cell (overexpressing APP) membrane fractions, increasing amounts of compound
# Procedure: Membrane preparation and in vitro generation of AICD were performed as described (Gu et al., 2001; Kim et al., 2002). P2 membrane fractions were prepared from CHO cells overexpressing wild type APP and resuspended in Buffer H (20 mM HEPES, 150 mM NaCl, 10% glycerol, 5 mM EDTA, pH 7.4) with protease inhibitors. In vitro cleavage experiments were performed by incubating the membrane fractions at 0° C. or 37° C. for 1 hour with the indicated amounts of CP-113,818. As a negative control, a specific γ-secretase inhibitor, L-685,458, was added to one of the samples.
# [2] = tested on: PSAPP mice; details: 250 mg/kg/day orally, 5 weeks; cited from earlier work
# [3] = tested on: CHO cells; details: 4 μM; cited from earlier work
# [4] = tested on: Tg2576 mice; details: 12 month-old female Tg2576 mice, 3 weeks; cited from earlier work
# [5] = biological target: T1, purified recombinant human BACE1 (Homo sapiens, UniProt P56817); test: In vitro fluorometric BACE1 activity assay; assay type: biochemical; details: increasing amounts of compound, 2 hours
# T1 construct: purchased R&D systems
# T1 sequence (P56817 46-501): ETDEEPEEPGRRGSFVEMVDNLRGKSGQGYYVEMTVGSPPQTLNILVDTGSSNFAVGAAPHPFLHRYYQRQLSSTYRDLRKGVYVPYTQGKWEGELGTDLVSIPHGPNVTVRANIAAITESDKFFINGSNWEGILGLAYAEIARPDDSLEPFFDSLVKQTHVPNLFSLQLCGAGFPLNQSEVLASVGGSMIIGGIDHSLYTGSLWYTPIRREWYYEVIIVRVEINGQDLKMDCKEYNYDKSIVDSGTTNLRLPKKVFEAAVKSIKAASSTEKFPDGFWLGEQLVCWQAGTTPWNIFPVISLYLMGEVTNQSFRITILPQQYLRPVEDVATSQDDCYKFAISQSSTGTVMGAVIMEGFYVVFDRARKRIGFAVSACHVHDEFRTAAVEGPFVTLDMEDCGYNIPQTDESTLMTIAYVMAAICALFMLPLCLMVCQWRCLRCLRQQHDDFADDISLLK
# Procedure: A fluorometric β-secretase activity kit was used for detecting BACE1 activity in vitro. Reaction was done according to the manufacturer's instructions with slight modifications. Briefly, 1 μg of purified recombinant human BACE1 (R&D systems) was resuspended in 10 μl of 1× cell extraction buffer (R&D systems) and incubated with EDANS/DABCYL-[…] substrate peptide in the absence or presence of indicated account of CP-113,818 for 2 hours. Released EDANS fluorescence was measured by a fluorescent plate reader (Analyst AD, LJL Biosystems). As a negative control, a specific β-secretase inhibitor, GL-189 (Calbiochem) was added to one of the samples with the indicated concentration.
smiles,measurement,setting,value
"CC(C)C[C@H](NC(=O)[C@H](Cc1ccccc1)C[C@@H](O)[C@H](Cc1ccccc1)NC(=O)OC(C)(C)C)C(=O)N[C@@H](Cc1ccccc1)C(N)=O [L-685,458]",effect on γ-secretase activity (AICD generation) in vitro,[1],inhibits APP intracellular domain (AICD) generation
O=C(O)c1ccc(CCN2CCN(C/C=C/c3ccc(Cl)cc3)CC2)cc1 [BM15.766],reduction of amyloid load,[2],53%
same,reduction of formic acid-extracted Aβ40,[2],58%
same,reduction of formic acid-extracted Aβ42,[2],48%
CC(C)c1cc(C(C)C)c(CC(=O)NS(=O)(=O)Oc2c(C(C)C)cccc2C(C)C)c(C(C)C)c1 [avasimibe],inhibition of Aβ generation,[3],approximately 60%
CC[C@H](C)C(=O)O[C@H]1C[C@@H](C)C=C2C=C[C@H](C)[C@H](CC[C@@H]3C[C@@H](O)CC(=O)O3)[C@H]21 [lovastatin],Aβ pathology in female animals,[4],increasing Aβ pathology
CC(C)C[C@H](NC(=O)[C@H](CC(N)=O)NC(=O)[C@@H](NC(=O)[C@@H](N)CCC(=O)O)C(C)C)[C@@H](O)CC(=O)N[C@H](C(=O)N[C@@H](C)C(=O)N[C@@H](CCC(=O)O)C(=O)N[C@@H](Cc1ccccc1)C(N)=O)C(C)C [GL-189] (H-EVN[Sta]VAEF-NH2),effect on BACE1 activity in vitro,[5],significantly reduces BACE1 activity
